Measured values reported in patent US20260102407A1, “TREATMENT METHODS” (priority 2020, published 2026).
Values joined by “and” are separate entries in the source; they are usually repeats but may differ in a detail not shown here. Equal values may be shown once.

Tests used:
Balb/c mice = assay: Toxicology, histopathology after intraperitoneal, intraarticular or gavage administration; details: for Eye (left and right), severity grade / Heart, severity grade / Kidney (left and right): inflammation, renal pelvis, severity grade / Liver: inflammation, peritoneal, severity grade / Liver: mineralisation, subcapsular, severity grade / Lung: osseous metaplasia, severity grade / Spleen, severity grade / Kidney (left and right): inflammation, interstitial, severity grade / Liver: inflammation, parenchymal, severity grade: Mouse 1-5
Method: Toxicology. Female Balb/c mice (8-9 week-old) were given 3 or 30 mg/kg BT2 (DMSO vehicle) via intraperitoneal injection (Days 0 and 5 in DMSO), oral gavage (Days 0-4 in DMSO/methylcellulose) or intraarticular injection (Day 0 in DMSO). Mice were euthanized after 8-11 d. Tissues was fixed in 10% formalin, processed routinely, sectioned at 4 μm and stained with hematoxylin and eosin.

AP-1 response element = AP-1 response element Firefly luciferase high-throughput screen in 293/AP-1-luc cells; format: cell-based, human; details: 11-point titration curves; TPA-induced 293/AP-1-luc cells
Source text: High-throughput screen of compound library. Hits were selected from the ˜100,000 compound Lead Discovery Library at the HTS Facility at Walter & Eliza Hall Institute of Medical Research (WEHI, Bundoora, Vic) with a commercially-available human embryonic kidney (HEK)-293 cell-based assay in 384-well microtitre plates in which Firefly luciferase was driven by multiple copies of the AP-1 response element (293/AP-1-luc cells, Panomics, Fremont, CA). Briefly, the cell-based assay involved plating 5×10^3 cells into 384-well plates in DMEM, pH 7.4 containing 10% FBS. After ˜18 h, the cells were induced with 10 ng/ml […] (TPA) (Sigma, St Louis, MO) in the absence or presence of test compound, then after ˜18 h, luciferase activity was measured using a luminometer. The hit rate of the primary screen was 2.4%. […] A substructure filter was then applied to remove pan-assay interference compounds (Baell, J. B., et al., J Med Chem 53, 2719-2740 (2010)) and using the most stringent filtering criteria 256 hits were selected for further study. After dose response testing, 24 compounds with molecular weight <400 Da were reordered from suppliers and tested in secondary assays.

VCAM-1 = assay: Matrigel plug assay, VCAM-1 staining; format: in vivo; details: C57BL/6 mice; 2.5 mg/mouse; 7 days
Method: Matrigel plug assay. Matrigel (500 μl) containing VEGF-A165 (100 ng/ml), heparin (10U) and BT2 or BT3 (2.5 mg/mouse) or its vehicle (saline containing 0.01% DMSO and 0.5% Tween 80) was injected subcutaneously into the left flanks of male 8 week-old C57BL/6 mice. After 7d the mice were sacrificed by CO2 asphyxiation and the plugs carefully removed. Formalin-fixed paraffin embedded sections were prepared from Matrigel plugs for immunohistological assessment. Heat-induced epitope retrieval was applied to all deparaffinized sections (4 μm Superfrost slides) in citrate buffer, pH 6 for 5 min at 110° C. Immunostaining for all groups with a given antibody was performed simultaneously and development time was identical. […]
Slides were scanned using an Aperio ScanScope XT slide scanner (Leica Biosystems, Mt Waverley, Vic Australia) and images captured using ImageScope software (Leica Biosystems). Positive intraplug staining was assessed using Image-Pro Plus software (Cybernetics, Bethesda, MD) in 5-12 randomly selected fields of view for each plug photographed under 10× (CD31), 20× (VCAM-1) and 40× (FosB) objectives and expressed as integrated optical density (IOD, the product of calibrated intensity (optical density) and area, i.e. IOD=intensity (mean)×area) (Media Cybernetics) (Liu, H., et al., Sci Rep 6, 21319 (2016)). […]

[1] = Gavage BT2 3 mg/kg (Days 0-4), 3 mg/kg
[2] = IA BT2 3 mg/kg (Day 0), 3 mg/kg
[3] = IP BT2 3 mg/kg (Days 0 and 5), 3 mg/kg
[4] = IP BT2 30 mg/kg (Days 0 and 5), 30 mg/kg

Structure (SMILES): CCOC(=O)Nc1ccc2c(c1)C(=O)N(CC)c1ccccc1O2 [BT2, (10-ethyl-11-oxo-10,11-dihydro-dibenzo[b,f][1,4]oxazepin-2-yl)-carbamic acid ethyl ester]
- histopathological evidence of toxicity (Balb/c mice; Balb/c mice, 3 or 30 mg/kg, intraperitoneal, intraarticular or oral gavage): no histopathological evidence of toxic damage
- treated mice whose kidneys contained infrequent inflammatory foci (Balb/c mice; Balb/c mice, all BT2 groups, control one of 5): 4 of 30
- Eye (left and right), severity grade (Balb/c mice; Gavage BT2 3 mg/kg (Days 0-4)): 0
- Heart, severity grade (Balb/c mice; Gavage BT2 3 mg/kg (Days 0-4)): 0
- Kidney (left and right): inflammation, renal pelvis, severity grade (Balb/c mice; Gavage BT2 3 mg/kg (Days 0-4)): 0
- Liver: inflammation, peritoneal, severity grade (Balb/c mice; Gavage BT2 3 mg/kg (Days 0-4)): 0
- Liver: mineralisation, subcapsular, severity grade (Balb/c mice; Gavage BT2 3 mg/kg (Days 0-4)): 0
- Lung: osseous metaplasia, severity grade (Balb/c mice; Gavage BT2 3 mg/kg (Days 0-4)): 0
- Spleen, severity grade (Balb/c mice; Gavage BT2 3 mg/kg (Days 0-4)): 0
- Kidney (left and right): inflammation, interstitial, severity grade (Balb/c mice; [1]): 0 and 1
- Liver: inflammation, parenchymal, severity grade (Balb/c mice; [1]): 0 and 1
- Eye (left and right), severity grade (Balb/c mice; Gavage BT2 30 mg/kg (Days 0-4)): 0
- Heart, severity grade (Balb/c mice; Gavage BT2 30 mg/kg (Days 0-4)): 0
- Kidney (left and right): inflammation, interstitial, severity grade (Balb/c mice; Gavage BT2 30 mg/kg (Days 0-4)): 0
- Kidney (left and right): inflammation, renal pelvis, severity grade (Balb/c mice; Gavage BT2 30 mg/kg (Days 0-4)): 0
- Liver: inflammation, peritoneal, severity grade (Balb/c mice; Gavage BT2 30 mg/kg (Days 0-4)): 0
- Liver: mineralisation, subcapsular, severity grade (Balb/c mice; Gavage BT2 30 mg/kg (Days 0-4)): 0
- Lung: osseous metaplasia, severity grade (Balb/c mice; Gavage BT2 30 mg/kg (Days 0-4)): 0
- Spleen, severity grade (Balb/c mice; Gavage BT2 30 mg/kg (Days 0-4)): 0
- Liver: inflammation, parenchymal, severity grade (Balb/c mice; Gavage BT2 30 mg/kg (Days 0-4), 30 mg/kg): 1 and 0
- Eye (left and right), severity grade (Balb/c mice; IA BT2 3 mg/kg (Day 0)): 0
- Heart, severity grade (Balb/c mice; IA BT2 3 mg/kg (Day 0)): 0
- Liver: inflammation, peritoneal, severity grade (Balb/c mice; IA BT2 3 mg/kg (Day 0)): 0
- Liver: mineralisation, subcapsular, severity grade (Balb/c mice; IA BT2 3 mg/kg (Day 0)): 0
- Lung: osseous metaplasia, severity grade (Balb/c mice; IA BT2 3 mg/kg (Day 0)): 0
- Spleen, severity grade (Balb/c mice; IA BT2 3 mg/kg (Day 0)): 0
- Kidney (left and right): inflammation, interstitial, severity grade (Balb/c mice; [2]): 0 and 1
- Kidney (left and right): inflammation, renal pelvis, severity grade (Balb/c mice; [2]): 2 and 0
- Liver: inflammation, parenchymal, severity grade (Balb/c mice; [2]): 1 and 0
- Eye (left and right), severity grade (Balb/c mice; IA BT2 30 mg/kg (Day 0)): 0
- Heart, severity grade (Balb/c mice; IA BT2 30 mg/kg (Day 0)): 0
- Kidney (left and right): inflammation, interstitial, severity grade (Balb/c mice; IA BT2 30 mg/kg (Day 0)): 0
- Kidney (left and right): inflammation, renal pelvis, severity grade (Balb/c mice; IA BT2 30 mg/kg (Day 0)): 0
- Liver: inflammation, parenchymal, severity grade (Balb/c mice; IA BT2 30 mg/kg (Day 0)): 1
- Liver: inflammation, peritoneal, severity grade (Balb/c mice; IA BT2 30 mg/kg (Day 0)): 0
- Liver: mineralisation, subcapsular, severity grade (Balb/c mice; IA BT2 30 mg/kg (Day 0)): 0
- Lung: osseous metaplasia, severity grade (Balb/c mice; IA BT2 30 mg/kg (Day 0)): 0
- Spleen, severity grade (Balb/c mice; IA BT2 30 mg/kg (Day 0)): 0
- Eye (left and right), severity grade (Balb/c mice; IP BT2 3 mg/kg (Days 0 and 5)): 0
- Heart, severity grade (Balb/c mice; IP BT2 3 mg/kg (Days 0 and 5)): 0
- Kidney (left and right): inflammation, interstitial, severity grade (Balb/c mice; IP BT2 3 mg/kg (Days 0 and 5)): 0
- Kidney (left and right): inflammation, renal pelvis, severity grade (Balb/c mice; IP BT2 3 mg/kg (Days 0 and 5)): 0
- Liver: mineralisation, subcapsular, severity grade (Balb/c mice; IP BT2 3 mg/kg (Days 0 and 5)): 0
- Spleen, severity grade (Balb/c mice; IP BT2 3 mg/kg (Days 0 and 5)): 0
- Liver: inflammation, parenchymal, severity grade (Balb/c mice; [3]): 1 and 0
- Liver: inflammation, peritoneal, severity grade (Balb/c mice; [3]): 0 and 2 and 1
- Lung: osseous metaplasia, severity grade (Balb/c mice; [3]): 0 and 1
- Eye (left and right), severity grade (Balb/c mice; IP BT2 30 mg/kg (Days 0 and 5)): 0
- Heart, severity grade (Balb/c mice; IP BT2 30 mg/kg (Days 0 and 5)): 0
- Kidney (left and right): inflammation, interstitial, severity grade (Balb/c mice; IP BT2 30 mg/kg (Days 0 and 5)): 0
- Lung: osseous metaplasia, severity grade (Balb/c mice; IP BT2 30 mg/kg (Days 0 and 5)): 0
- Spleen, severity grade (Balb/c mice; IP BT2 30 mg/kg (Days 0 and 5)): 0
- Kidney (left and right): inflammation, renal pelvis, severity grade (Balb/c mice; [4]): 0 and 4
- Liver: inflammation, parenchymal, severity grade (Balb/c mice; [4]): 1 and 2
- Liver: inflammation, peritoneal, severity grade (Balb/c mice; [4]): 1 and 2
- Liver: mineralisation, subcapsular, severity grade (Balb/c mice; [4]): 0 and 1
- IC50, AP-1 luciferase screen (AP-1 response element): micromolar or submicromolar range
- VCAM-1 immunoreactivity in Matrigel plugs (VCAM-1): inhibited
